Test [1] deals with Symmetric Di-methyl Arginine (SDMA) signal (PRMT5 inhibition) in HCT116 MTAP-deleted cells. Nature of the test: Symmetric di-methyl arginine image-based high content screen assay (SDMA assay), HCT116 MTAP-deleted. In kind it is cell-based. Particulars: for EC50 selectivity: HCT116 WT versus HCT116 MTAP-deleted; for EC50: Homo sapiens, HCT-116, HCT116 MTAP-deleted, class symbols. Here is the method:
Symmetric di-methyl arginine image-based high content screen assay (SDMA assay) was performed in HCT116 WT and HCT116 MTAP-deleted cell lines to measure Symmetric Di-methyl Arginine (SDMA) signal reduction after selective PRMT5 inhibition in the MTAP-deleted cells. Control compounds were analyzed in parallel each time for quality control.
Briefly, the same compound plates were generated as mentioned in the previous section of Cell viability assay on Day −1. On Day 0, 800 HCT WT or HCT116 MTAP-deleted cell were seeded in compound-containing 384 well plates (50 μl per well) in RPMI 1640 media supplemented with 10% heat inactivated fetal bovine serum, Glutamax and penicillin streptomycin using EL460 liquid dispenser 5 μl cassette (BioTek, part no. 7170011). After equilibrating the plate at room temperature, the cells were incubated for 3 days inside the sealed incubator set at 37° C. with 90% humidity and 5% C02.
On Day 3, the cells were fixed by adding 45 μl of 8% neutralized formalin solution to each well using EL460 liquid dispenser 5 μl cassette and the cells were incubated for 30 minutes at room temperature. The formalin solution was washed off with […] phosphate buffered saline (dPBS), the 0.1% Triton X-100 solution in dPBS was used to permeabilize the cells for 15 minutes at room temperature. The triton solution was aspirated, 50 μl of Odyssey Blocking buffer +0.05% Tween20 was added and the plate was incubated at room temperature for 30 minutes.
The blocking solution was removed, a 20 μl of SDMA antibody (Cell Signaling Technology, Cat no. 13222) diluted 1:500 in Odyssey Blocking buffer +0.05% Tween20 was added and the plate was incubated at 4° C. overnight. Next day, the primary SDME antibody solution was washed from each well three times with 0.05% Tween20 in dPBS (PBST).
A 30 μl of the secondary antibody, a Goat anti-Rabbit Alexa Fluor Plus 488 (Invitrogen, Cat no. PIA32731) was diluted 1:500 in Odyssey Blocking buffer +0.05% Tween20 and the plate was incubated for 1.5 hours in dark at room temperature. The secondary antibody solution was removed, 30 μl of 5 mg/ml DAPI solution diluted 1:2000 in dPBS was added and the plate was incubated for 30 minutes in dark at room temperature. The DAPI solution was aspirated and the wells were washed six times with dPBS.
The SDMA signal and DAPI signal per cell were counted using a Cellomics CX7 LZR instrument reading under 488 and 405 nm laser, respectively. The SDMA signal was quantified by mean average intensity per cell from Alexa Fluor Plus 488 after the cell was defined with DAPI. The EC50 values for each compound after 3 days of treatment were calculated using 4 parameter non-linear logistical curve fit.
For the SDMA assay i.e. EC50 shown in Table 3A: A: EC50≤1 nM, B: 1 nM<EC50≤5 nM, C: EC50>5 nM.

In test [2] the test system is HCT116 MTAP-deleted cell lines. The test is described as follows: Cell viability assay (CellTiter-Glo, 7 days), HCT116 MTAP-deleted. In kind it is cell-based. Conditions: Homo sapiens, HCT-116. A digest of the protocol:
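Each PRMT5 inhibitor was tested as a dose response alongside tool compounds on the same plate. Incubation ran 7 days at 37 °C under 5% CO2, after which CellTiter-Glo luminescence was recorded and CC50 calculated.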
(Cellular ATP, detected with luciferase, serves as a proxy for viable cell number.)

Setting [3] is: cell viability, HCT116 MTAP-deleted, class symbols, read-out: CC50.

SMILES strings stand for the structures. Read-outs that look alike come from different tables or passages of the source. Bounds are passed on as bounds.

In test [1], `Cc1ncc2c(N)nc3ccc(C(=O)N(Cc4ccc(C(F)(F)F)cc4F)N(C)C(=O)C4CC4)cc3n12` [Fb-4, 4-amino-N′-(cyclopropanecarbonyl)-N-(2-fluoro-4-(trifluoromethyl)benzyl)-N′,1-dimethylimidazo[1,5-a]quinoxaline-8-carbohydrazide] gave an EC50 selectivity of 249 and a half-maximal effective concentration (EC50) of 1 to 5 nM. For the same compound, the CC50 in test [2] (setting [3]) is 100 to 1000 nM.
`CC(=O)N(C)N(Cc1nc2cc(Cl)ccc2s1)C(=O)c1ccc2nc(N)c3cncn3c2c1` [Fb-5, N′-acetyl-4-amino-N-((5-chlorobenzo[d]thiazol-2-yl)methyl)-N′-methylimidazo[1,5-a]quinoxaline-8-carbohydrazide]: in test [1], the EC50 selectivity is 320 and the half-maximal effective concentration (EC50) was greater than 5 nM. For the same compound, the CC50 in test [2] (setting [3]) lay in the range of 100 to 1000 nM.
In test [1], `CC(=O)N(C)N(Cc1nc2cc(Cl)ccc2s1)C(=O)c1ccc2nc(N)c3cnc(C)n3c2c1` [Fb-6, N′-acetyl-4-amino-N-((5-chlorobenzo[d]thiazol-2-yl)methyl)-N′,1-dimethylimidazo[1,5-a]quinoxaline-8-carbohydrazide] returned an EC50 selectivity of 390 and a concentration giving a half-maximal response (EC50) greater than 5 nM. Moreover, in test [2] (setting [3]), the 50% cytotoxic concentration (CC50) was in the range of 100 to 1000 nM.
With `CN(C(=O)c1cc2c(cc1F)nc(N)c1cncn12)[C@@H](c1ccc(C(F)(F)F)cc1F)C(F)F` [Fb-8, (S)-4-amino-N-(2,2-difluoro-1-(2-fluoro-4-(trifluoromethyl)phenyl)ethyl)-7-fluoro-N-methylimidazo[1,5-a]quinoxaline-8-carboxamide], in test [1], the EC50 selectivity is 224 and the EC50 was no more than 1 nM. For the same compound, the CC50 in test [2] (setting [3]) was less than 100 nM.
Consider `Cc1ncc2c(N)nc3ccc(C(=O)N(Cc4ccc(C(F)(F)F)cn4)N4CCCC4=O)cc3n12` [Fc-1, 4-amino-1-methyl-N-(2-oxopyrrolidin-1-yl)-N-[[5-(trifluoromethyl)-2-pyridyl]methyl]imid-azo[1,5-a]quinoxaline-8-carboxamide], for which, in test [1], the EC50 selectivity came out at 171 and the EC50 fell in the range of 1 to 5 nM. Besides, in test [2] (setting [3]), the half-maximal cytotoxic concentration (CC50) was 100 to 1000 nM.
In test [1], `CC(=O)N(C)N(Cc1ccc(OC(F)F)cc1F)C(=O)c1ccc2nc(N)c3cnc(C)n3c2c1` [Fc-2, N′-acetyl-4-amino-N-(4-(difluoromethoxy)-2-fluorobenzyl)-N′,1-dimethylimidazo[1,5-a]quinoxaline-8-carbohydrazide] had an EC50 selectivity of 431 and an EC50 of 1 to 5 nM. Also, the half-maximal cytotoxic concentration (CC50) in test [2] (setting [3]) was in the range of 100 to 1000 nM.
In test [1], `Nc1nc2ccc(C(=O)N(Cc3ccc(C(F)(F)F)cn3)N3CCCC3=O)cc2n2cncc12` [Fd-1, 4-amino-N-(2-oxopyrrolidin-1-yl)-N-((5-(trifluoromethyl)pyridin-2-yl)methyl)imidazo[1,5-a]quinoxaline-8-carboxamide] registered an EC50 selectivity of 54 and an EC50 of 1 to 5 nM. In addition, the CC50 in test [2] (setting [3]) is 100 to 1000 nM.
In test [1], `Nc1nc2ccc(C(=O)N(Cc3ccc(C(F)(F)F)cn3)C34CC(C3)C4)cc2n2cncc12` [Fe-1, 4-amino-N-(bicyclo[1.1.1]pentan-1-yl)-N-((5-(trifluoromethyl)pyridin-2-yl)methyl)imidazo[1,5-a]quinoxaline-8-carboxamide] had an EC50 selectivity of 62 and an EC50 of 1 to 5 nM. Also, in test [2] (setting [3]), the CC50 was less than 100 nM.
`C[C@H](c1ncccn1)N(Cc1ccc(C(F)(F)F)cn1)C(=O)c1ccc2nc(N)c3cncn3c2c1` [Fe-2, (R)-4-amino-N-(1-(pyrimidin-2-yl)ethyl)-N-((5-(trifluoromethyl)pyridin-2-yl)methyl)imidazo[1,5-a]quinoxaline-8-carboxamide]: in test [1], the EC50 selectivity is given as 5 and the concentration for a half-maximal effect (EC50) was no more than 1 nM. In addition, the CC50 in test [2] (setting [3]) was less than 100 nM.
With `Nc1nc2cc(F)c(C(=O)N(Cc3ccc(C(F)(F)F)cn3)C34CC(C3)C4)cc2n2cncc12` [Ff-1, 4-amino-N-(bicyclo[1.1.1]pentan-1-yl)-7-fluoro-N-((5-(trifluoromethyl)pyridin-2-yl)methyl)imidazo[1,5-a]quinoxaline-8-carboxamide], in test [1], the EC50 selectivity is 37 and the EC50 is no more than 1 nM. For the same compound, the CC50 in test [2] (setting [3]) is less than 100 nM.
Taken in the same sequence, the figures for `Nc1nc2cc(F)c(C(=O)N3CCC(c4ccc(C(F)(F)F)cc4F)C3)cc2n2cncc12` (stereo not drawn) [Ff-4, (4-amino-7-fluoroimidazo[1,5-a]quinoxalin-8-yl)(3-(2-fluoro-4-(trifluoromethyl)phenyl)pyrrolidin-1-yl)methanone] were 2956, greater than 5 nM and 100 to 1000 nM.
In test [1], `CN(Cc1cccc2ccoc12)C(=O)c1ccc2nc(N)c3cncn3c2c1` [Ff-5, 4-amino-N-(benzofuran-7-ylmethyl)-N-methylimidazo[1,5-a]quinoxaline-8-carboxamide] came in with an EC50 selectivity of 334 and an EC50 greater than 5 nM. Also, the CC50 in test [2] (setting [3]) was greater than 1000 nM.
The matching figures for `Nc1nc2cc(F)c(C(=O)N(Cc3ccc(Cl)cc3F)C34CC(C3)C4)cc2n2cncc12` [Ff-6, 4-amino-N-(bicyclo[1.1.1]pentan-1-yl)-N-(4-chloro-2-fluorobenzyl)-7-fluoroimidazo[1,5-a]quinoxaline-8-carboxamide]: 71, greater than 5 nM and 100 to 1000 nM.
On to `CC(C)N(Cc1ccc(C(F)(F)F)cn1)C(=O)c1cc2c(cc1F)nc(N)c1cncn12` [Ff-7, 4-amino-7-fluoro-N-isopropyl-N-((5-(trifluoromethyl)pyridin-2-yl)methyl)imidazo[1,5-a]quinoxaline-8-carboxamide], for which, in test [1], the EC50 selectivity was 33 and the 50% effective concentration (EC50) was no more than 1 nM. The 50% cytotoxic concentration (CC50) in test [2] (setting [3]) is less than 100 nM.
Turning to `CCN(C(=O)c1ccc2nc(N)c3cncn3c2c1)[C@@H]1COc2cc(C(F)(F)F)ccc21` [Ff-8, (S)-4-amino-N-ethyl-N-(6-(trifluoromethyl)-2,3-dihydrobenzofuran-3-yl)imidazo[1,5-a]quinoxaline-8-carboxamide], in test [1], the EC50 selectivity came out at 299 and the concentration giving a half-maximal response (EC50) was no more than 1 nM. In addition, in test [2] (setting [3]), the CC50 was less than 100 nM.
In the case of `CCN(C(=O)c1cc2c(cc1F)nc(N)c1cncn12)[C@@H]1COc2cc(C(F)(F)F)ccc21` [Ff-9, (S)-4-amino-N-ethyl-7-fluoro-N-(6-(trifluoromethyl)-2,3-dihydrobenzofuran-3-yl)imidazo[1,5-a]quinoxaline-8-carboxamide], in test [1], the EC50 selectivity turned out to be 106 and the concentration giving a half-maximal response (EC50) was no more than 1 nM. In addition, the CC50 in test [2] (setting [3]) is less than 100 nM.
In test [1], `CN(C(=O)c1cc2c(cc1Cl)nc(N)c1cncn12)[C@@H]1COc2cc(C(F)(F)F)ccc21` [Ff-10, (S)-4-amino-7-chloro-N-methyl-N-(6-(trifluoromethyl)-2,3-dihydrobenzofuran-3-yl)imidazo[1,5-a]quinoxaline-8-carboxamide] came in with an EC50 selectivity of 88 and an EC50 of no more than 1 nM. This compound had a CC50 in test [2] of less than 100 nM.
In test [1], `CN(C(=O)c1ccc2nc(N)c3cncn3c2c1)[C@@H]1COc2cc(C(F)(F)F)ccc21` [Ff-11, (S)-4-amino-N-methyl-N-(6-(trifluoromethyl)-2,3-dihydrobenzofuran-3-yl)imidazo[1,5-a]quinoxaline-8-carboxamide] came in with an EC50 selectivity of 352 and an EC50 of no more than 1 nM. The CC50 in test [2] (setting [3]) was less than 100 nM.

A word on the EC50: it is the concentration at which the effect is half-maximal. A word on the CC50: it is the concentration that lowers cell viability or growth by half.

Source of the values: patent publication US12448388B2, “PRMT5 inhibitors and uses thereof” (Gilead Sciences, Inc., priority 2023, dated 2025).
